Experimental data: patent publication US7553864B2, “Compounds for the treatment of inflammatory disorders and microbial diseases” (Schering Corporation, priority 2005, dated 2009)
Read-outs that look alike come from different tables or passages of the source.

Experiments:
ADMP (ADAMTS-4-5) = target: T1, ADMP (ADAMTS-4-5) (Homo sapiens, UniProt O75173); test: ADMP activity assay (procedures of WO00/05256); type: biochemical
T1 construct: purchased Calbiochem PF113
T1 sequence (O75173 213-837): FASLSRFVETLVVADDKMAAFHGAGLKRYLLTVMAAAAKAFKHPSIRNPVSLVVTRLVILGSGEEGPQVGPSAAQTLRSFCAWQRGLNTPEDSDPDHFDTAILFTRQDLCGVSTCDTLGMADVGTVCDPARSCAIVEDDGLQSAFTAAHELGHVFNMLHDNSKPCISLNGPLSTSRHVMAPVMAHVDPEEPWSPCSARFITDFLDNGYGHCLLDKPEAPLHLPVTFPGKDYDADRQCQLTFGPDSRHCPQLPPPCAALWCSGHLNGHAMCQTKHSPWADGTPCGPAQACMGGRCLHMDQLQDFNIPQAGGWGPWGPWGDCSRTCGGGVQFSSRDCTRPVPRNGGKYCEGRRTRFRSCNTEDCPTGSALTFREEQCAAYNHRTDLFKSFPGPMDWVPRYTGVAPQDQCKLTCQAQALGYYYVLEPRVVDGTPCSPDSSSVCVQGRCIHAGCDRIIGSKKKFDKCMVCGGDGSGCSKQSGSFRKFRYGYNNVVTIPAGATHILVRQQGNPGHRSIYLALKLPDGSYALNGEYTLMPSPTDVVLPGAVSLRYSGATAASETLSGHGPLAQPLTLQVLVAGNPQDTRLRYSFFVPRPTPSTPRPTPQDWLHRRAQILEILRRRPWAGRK
Excerpt: The procedures of International Patent Publication WO00/05256 (published Feb. 3, 2000) were followed for detection of ADMP Activity and for measuring the IC50 of the compounds of the present invention. This was indicative of activity against a desintgrin and metallopropeinase thrombo spondin 4 and 5 (ADAMTS-4-5).
The enzyme was purchased commercially from Calbiochem (Cat# PF113) and the peptide substrate described in the patent was custom-ordered from AnaSpec.

LpxC enzyme = LpxC enzyme assay (RapidFire high-throughput mass spectrometry); type: biochemical
Method in brief: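 0.2 nM enzyme with 1.0 μM UDP-3-O-(R-3-hydroxymyristoyl)-N-acetylglucosamine in 25 mM HEPES pH 7.3, 150 mM NaCl, 2.0 mM DTT, 0.01% BSA, 2% DMSO; 60 min at room temperature, quenched with HCl. Substrate and product quantified by RapidFire mass spectrometry; percent conversion gives percent inhibition versus DMSO control.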

[1] = read-out: IC50 rating (ADMP inhibitory activity)
[2] = concentration 0.10 (unit not given)
[3] = concentration 0.20 (unit not given)
[4] = concentration 0.39 (unit not given)
[5] = concentration 0.78 (unit not given)
[6] = concentration 1.56 (unit not given)
[7] = concentration 3.13 (unit not given)
[8] = concentration 6.25 (unit not given)
[9] = concentration 12.50 (unit not given)
[10] = concentration 25 (unit not given)

Row | SMILES | IC50 (ADMP (ADAMTS-4-5); [1]) | LpxC enzyme assay rating (% inhibition at indicated concentrations) (LpxC enzyme; [2]) | LpxC enzyme assay rating (% inhibition at indicated concentrations) (LpxC enzyme; [3]) | LpxC enzyme assay rating (% inhibition at indicated concentrations) (LpxC enzyme; [4]) | LpxC enzyme assay rating (% inhibition at indicated concentrations) (LpxC enzyme; [5]) | LpxC enzyme assay rating (% inhibition at indicated concentrations) (LpxC enzyme; [6]) | LpxC enzyme assay rating (% inhibition at indicated concentrations) (LpxC enzyme; [7]) | LpxC enzyme assay rating (% inhibition at indicated concentrations) (LpxC enzyme; [8]) | LpxC enzyme assay rating (% inhibition at indicated concentrations) (LpxC enzyme; [9]) | LpxC enzyme assay rating (% inhibition at indicated concentrations) (LpxC enzyme; [10]) | IC50 (ADMP (ADAMTS-4-5))
1 | C[C@H](NC(=O)C(O)C(O)C(=O)N1CCc2ccccc2C1)c1ccc(I)cc1 (stereo in doubt) [Compound 210] | 250 to 1000 nM |  |  |  |  |  |  |  |  |  | 
2 | CN(C)C(=O)[C@H](O)[C@@H](O)C(=O)Nc1ccccc1C#Cc1ccccc1 [Compound 80] |  | C (less than 10% inhibition) | C (less than 10% inhibition) | C (less than 10% inhibition) | C (less than 10% inhibition) | C (less than 10% inhibition) | C (less than 10% inhibition) | C (less than 10% inhibition) | B (10-30% inhibition) | C (less than 10% inhibition) | 
3 | CN(C)C(=O)[C@H](O)[C@@H](O)C(=O)Nc1cccc(C#Cc2ccccc2)c1 [Compound 81] |  | C (less than 10% inhibition) | C (less than 10% inhibition) | C (less than 10% inhibition) | C (less than 10% inhibition) | C (less than 10% inhibition) | C (less than 10% inhibition) | C (less than 10% inhibition) | C (less than 10% inhibition) | C (less than 10% inhibition) | 
4 | CN(C)C(=O)[C@H](O)[C@@H](O)C(=O)Nc1ccc(-c2ccc3ccccc3c2)cc1 [Compound 82] |  | C (less than 10% inhibition) | B (10-30% inhibition) | C (less than 10% inhibition) | C (less than 10% inhibition) | C (less than 10% inhibition) | B (10-30% inhibition) | B (10-30% inhibition) | A (greater than 30% inhibition) | A (greater than 30% inhibition) | 
5 | CN(C)C(=O)[C@H](O)[C@@H](O)C(=O)N(C)c1ccccc1C#Cc1ccccc1 [Compound 103] |  | C (less than 10% inhibition) | C (less than 10% inhibition) | B (10-30% inhibition) | B (10-30% inhibition) | B (10-30% inhibition) | B (10-30% inhibition) | C (less than 10% inhibition) | B (10-30% inhibition) | C (less than 10% inhibition) | 
6 | CN(C)C(=O)[C@H](O)[C@@H](O)C(=O)N(C)c1ccc(-c2ccc3ccccc3c2)cc1 [Compound 104] |  | C (less than 10% inhibition) | C (less than 10% inhibition) | C (less than 10% inhibition) | C (less than 10% inhibition) | C (less than 10% inhibition) | C (less than 10% inhibition) | C (less than 10% inhibition) | C (less than 10% inhibition) | B (10-30% inhibition) | 
7 | COc1ccc(CNC(=O)[C@H](O)[C@@H](O)C(=O)N2CCC(C(C)=O)(c3ccccc3)CC2)cc1 [Compound 108] |  |  |  |  |  |  |  |  |  |  | 250 to 1000 nM
8 | CN(Cc1ccccc1)C(=O)[C@H](O)[C@@H](O)C(=O)NCc1ccc(Cl)cc1 [Compound 110] | 250 to 1000 nM |  |  |  |  |  |  |  |  |  | 
9 | O=C(NCc1ccc(C(F)(F)F)cc1)[C@H](O)[C@@H](O)C(=O)N1CCN(c2cccc(Cl)c2)CC1 [Compound 111] | 250 to 1000 nM |  |  |  |  |  |  |  |  |  | 
10 | CN(CCc1ccccn1)C(=O)[C@H](O)[C@@H](O)C(=O)NCc1ccc(Cl)cc1 [Compound 113] | 250 to 1000 nM |  |  |  |  |  |  |  |  |  | 
11 | C[C@H](NC(=O)[C@H](O)[C@@H](O)C(=O)N1CCc2ccccc2C1)c1ccc(Br)cc1 [Compound 114] | < 250 nM |  |  |  |  |  |  |  |  |  | 
12 | CC(=O)c1ccc(N2CCN(C(=O)[C@H](O)[C@@H](O)C(=O)NCc3ccc(Cl)cc3)CC2)cc1 [Compound 118] | > 5000 nM |  |  |  |  |  |  |  |  |  | 
13 | C[C@H](NC(=O)[C@H](O)[C@@H](O)C(=O)N(C)C1CCN(C)CC1)c1ccc(Br)cc1 [Compound 121] | 1000 to 5000 nM |  |  |  |  |  |  |  |  |  | 
14 | CN1CCC(N(C)C(=O)[C@H](O)[C@@H](O)C(=O)NCc2ccc(C(F)(F)F)cc2)CC1 [Compound 122] | 250 to 1000 nM |  |  |  |  |  |  |  |  |  | 
